The values below come from US20240285670A1, “THERAPEUTIC TREATMENT OF TUMORS BY BLOCKING THE HEME SYNTHESIS-EXPORT AXIS” (Università degli Studi di Torino, priority 2021, published 2024).

In this series the test system is SH-SY5Y cells. Description: Activity of mitochondrial ETC complexes I-IV in SHSY-5Y cells. The series is classed as cell-based, human. Conditions: FLVCR1a-silenced vs scramble shRNA SH-SY5Y cells. From the text: Results were expressed as nmol NAD*/min/mg mitochondrial protein for complex I, nmol reduced cytochrome c/min/mg mitochondrial protein for complexes II-III, nmol oxidized cytochrome c/min/mg mitochondrial protein for complex IV. Data represent mean±SEM, n=3. For statistical analyses, an unpaired Student's t-test was used; *=p<0.05, **=p<0.01, *=p<0.001. […] Results are expressed as nmol/mg mitochondrial proteins. Data represent mean±SEM, n=3. For statistical analyses, an unpaired Student's t-test was used; *=p<0.05. […] Results are expressed as pmol CO2/h/mg protein. Data represent mean±SEM, n=3. For statistical analyses, an unpaired Student's t-test was used; **=p<0.01. […] Results were expressed as nmol NAD*/min/mg mitochondrial protein for complex I, nmol reduced cytochrome c/min/mg mitochondrial protein for complexes II-III, nmol oxidized cytochrome c/min/mg mitochondrial protein for complex IV. […] Results are expressed as nmol/mg mitochondrial proteins. […] Results are expressed as pmol CO2/h/mg protein. […] (H) TCA cycle enzymes activities are reported in boxes and expressed as mU/mg mitochondrial proteins. […] Results were expressed as nmol NAD^+/min/mg mitochondrial protein for complex I, nmol reduced cytochrome c/min/mg mitochondrial protein for complexes II-III, nmol oxidized cytochrome c/min/mg mitochondrial protein for complex IV. […] Results are expressed as nmol/mg mitochondrial proteins. […]

As to “FLVCR1a shRNA: shRNA specifically down-regulating FLVCR1a without targeting FLVCR1b; pLKO.1 lentiviral clone TRCN0000059599, antisense SEQ ID No.: 2 (antisense TTGCTAATGATGCTGTACTGG; sense CCAGTACAGCATCATTAGCAA)”, the “activity of ETC complexes” value is reported as “enhanced activity of ETC complexes”.
